Experimental data published in patent US12492188B2, “1H-benzo[D]imidazole derivatives as TLR9 inhibitors for the treatment of fibrosis” (BRISTOL-MYERS SQUIBB COMPANY, priority 2020, dated 2025).
Where two headings read alike, the source gives them in different places.

Experiments:
Assay type in all cases: cell-based
human TLR7 = molecular target: T1, human TLR7 (Homo sapiens, UniProt Q9NYK1); assay: TLR7 inhibition reporter assay (HEK-Blue cells, secreted embryonic alkaline phosphatase reporter); conditions: HEK-Blue cells overexpressing human TLR7, stimulated with gardiquimod 7.5 μM; read-out: TLR 7 IC50
T1 construct: host or cells: HEK-Blue cells (HEK293-derived reporter line)
T1 sequence (Q9NYK1 27-1049): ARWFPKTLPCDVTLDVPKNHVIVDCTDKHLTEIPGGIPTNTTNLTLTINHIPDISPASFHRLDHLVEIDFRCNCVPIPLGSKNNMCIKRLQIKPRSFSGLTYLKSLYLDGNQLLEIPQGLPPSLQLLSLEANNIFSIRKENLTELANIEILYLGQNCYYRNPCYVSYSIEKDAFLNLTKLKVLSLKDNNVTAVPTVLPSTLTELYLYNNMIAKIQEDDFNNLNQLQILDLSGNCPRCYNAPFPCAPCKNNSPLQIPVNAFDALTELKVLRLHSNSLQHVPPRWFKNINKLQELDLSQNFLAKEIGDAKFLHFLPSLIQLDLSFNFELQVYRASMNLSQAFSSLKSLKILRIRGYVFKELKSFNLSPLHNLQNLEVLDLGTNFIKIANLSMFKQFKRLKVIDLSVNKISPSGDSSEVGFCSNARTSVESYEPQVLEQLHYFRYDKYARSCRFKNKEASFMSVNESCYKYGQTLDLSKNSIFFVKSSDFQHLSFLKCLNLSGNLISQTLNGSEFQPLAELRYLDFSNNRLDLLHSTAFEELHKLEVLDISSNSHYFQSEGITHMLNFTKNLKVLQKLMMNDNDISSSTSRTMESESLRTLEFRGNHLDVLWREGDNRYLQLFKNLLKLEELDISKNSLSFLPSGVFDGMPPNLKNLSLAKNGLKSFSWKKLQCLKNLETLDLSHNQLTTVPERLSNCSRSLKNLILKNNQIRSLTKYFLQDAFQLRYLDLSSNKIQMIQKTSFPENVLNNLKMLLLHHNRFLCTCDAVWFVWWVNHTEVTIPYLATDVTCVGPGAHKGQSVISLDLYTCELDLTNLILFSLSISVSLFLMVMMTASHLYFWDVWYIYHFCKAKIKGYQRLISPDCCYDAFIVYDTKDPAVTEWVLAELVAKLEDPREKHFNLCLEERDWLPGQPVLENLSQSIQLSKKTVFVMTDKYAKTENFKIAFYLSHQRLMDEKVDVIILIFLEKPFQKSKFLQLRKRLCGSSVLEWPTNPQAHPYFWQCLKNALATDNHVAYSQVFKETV
How it was run: (§1)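 Steps: seed receptor-specific HEK-Blue cells; add compound, 0.05 nM–50 μM; wait 30 min at room temperature; add final gardiquimod 7.5 μM, R848 15.9 μM or ODN2006 5 nM for TLR7, TLR8 or TLR9; incubate 22 h at 37 °C; detect NF-κB/AP-1-driven SEAP.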

human TLR8 = molecular target: T2, human TLR8 (Homo sapiens, UniProt Q9NR97); assay: TLR8 inhibition reporter assay (HEK-Blue cells, secreted embryonic alkaline phosphatase reporter); conditions: HEK-Blue cells overexpressing human TLR8, stimulated with R848 15.9 μM; read-out: TLR 8 IC50
T2 construct: host or cells: HEK-Blue cells (HEK293-derived reporter line)
T2 sequence (Q9NR97 27-1041): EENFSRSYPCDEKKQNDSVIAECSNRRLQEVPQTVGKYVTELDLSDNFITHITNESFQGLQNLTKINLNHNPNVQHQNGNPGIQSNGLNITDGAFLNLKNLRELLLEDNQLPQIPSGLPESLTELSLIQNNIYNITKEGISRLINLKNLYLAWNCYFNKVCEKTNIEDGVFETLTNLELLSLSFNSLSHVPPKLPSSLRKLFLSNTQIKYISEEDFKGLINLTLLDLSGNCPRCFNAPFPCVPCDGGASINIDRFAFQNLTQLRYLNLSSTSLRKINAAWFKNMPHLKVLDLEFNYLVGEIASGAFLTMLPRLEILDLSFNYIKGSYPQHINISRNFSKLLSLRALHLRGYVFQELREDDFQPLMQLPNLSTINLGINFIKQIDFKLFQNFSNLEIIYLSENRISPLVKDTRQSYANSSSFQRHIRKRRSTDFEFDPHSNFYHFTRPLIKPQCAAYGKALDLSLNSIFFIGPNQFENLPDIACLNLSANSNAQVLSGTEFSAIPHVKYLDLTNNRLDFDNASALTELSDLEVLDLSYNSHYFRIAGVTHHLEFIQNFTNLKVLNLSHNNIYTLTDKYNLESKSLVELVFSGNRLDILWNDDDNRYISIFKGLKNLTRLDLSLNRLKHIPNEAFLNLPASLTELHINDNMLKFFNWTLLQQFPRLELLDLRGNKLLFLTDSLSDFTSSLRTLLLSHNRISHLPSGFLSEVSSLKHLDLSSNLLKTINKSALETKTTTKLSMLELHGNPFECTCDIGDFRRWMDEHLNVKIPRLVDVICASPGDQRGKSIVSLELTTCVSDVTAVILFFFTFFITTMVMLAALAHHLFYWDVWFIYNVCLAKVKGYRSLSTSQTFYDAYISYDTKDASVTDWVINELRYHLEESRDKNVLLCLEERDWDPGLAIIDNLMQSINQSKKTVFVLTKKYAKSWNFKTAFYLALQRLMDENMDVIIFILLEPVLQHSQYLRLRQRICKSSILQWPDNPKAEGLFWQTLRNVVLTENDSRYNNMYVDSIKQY
How it was run: as §1

human TLR9 = molecular target: T3, human TLR9 (Homo sapiens, UniProt Q9NR96); assay: TLR9 inhibition reporter assay (HEK-Blue cells, secreted embryonic alkaline phosphatase reporter)
T3 construct: host or cells: HEK-Blue cells (HEK293-derived reporter line)
T3 sequence (Q9NR96 26-1032): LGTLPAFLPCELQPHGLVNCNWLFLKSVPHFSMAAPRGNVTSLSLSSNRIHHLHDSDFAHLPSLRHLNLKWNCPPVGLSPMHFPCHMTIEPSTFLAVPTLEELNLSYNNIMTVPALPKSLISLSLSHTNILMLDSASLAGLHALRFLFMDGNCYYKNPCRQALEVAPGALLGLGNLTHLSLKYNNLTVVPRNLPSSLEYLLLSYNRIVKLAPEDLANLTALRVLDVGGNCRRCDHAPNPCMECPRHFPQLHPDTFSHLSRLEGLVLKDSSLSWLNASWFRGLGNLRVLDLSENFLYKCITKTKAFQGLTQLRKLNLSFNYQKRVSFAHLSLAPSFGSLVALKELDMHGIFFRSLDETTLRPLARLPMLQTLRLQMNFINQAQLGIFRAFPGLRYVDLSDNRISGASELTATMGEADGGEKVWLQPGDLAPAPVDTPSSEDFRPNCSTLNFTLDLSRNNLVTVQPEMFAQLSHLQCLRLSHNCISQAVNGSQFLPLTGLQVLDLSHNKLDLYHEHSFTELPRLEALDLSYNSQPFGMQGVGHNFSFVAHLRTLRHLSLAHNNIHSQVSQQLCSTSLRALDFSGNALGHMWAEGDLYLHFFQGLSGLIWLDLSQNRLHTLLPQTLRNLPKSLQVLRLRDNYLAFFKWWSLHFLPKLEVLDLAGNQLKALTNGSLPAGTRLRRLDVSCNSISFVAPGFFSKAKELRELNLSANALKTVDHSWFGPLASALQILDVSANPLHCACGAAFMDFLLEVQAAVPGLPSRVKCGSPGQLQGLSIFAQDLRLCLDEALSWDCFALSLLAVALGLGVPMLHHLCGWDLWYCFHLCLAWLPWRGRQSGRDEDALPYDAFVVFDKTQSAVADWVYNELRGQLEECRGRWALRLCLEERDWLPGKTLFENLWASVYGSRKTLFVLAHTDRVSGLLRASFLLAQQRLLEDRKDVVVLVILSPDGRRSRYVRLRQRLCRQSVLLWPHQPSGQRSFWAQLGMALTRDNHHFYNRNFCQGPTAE
How it was run: as §1

[1] = HEK-Blue cells overexpressing human TLR9, stimulated with ODN2006 5 nM, read-out: TLR 9 IC50

Cn1c(-c2ccc(S(C)(=O)=O)cc2)nc2c(F)c(C3CCN(C4CC5CCC(C4)N5CC4COC4)CC3)ccc21 (single isomer, unassigned) [Example 194, 4-fluoro-1-methyl-2-(4-(methylsulfonyl)phenyl)-5-(1-(8-(oxetan-3-ylmethyl)-8-azabicyclo[3.2.1]octan-3-yl)piperidin-4-yl)-1H-benzo[d]imidazole]
IC50 (human TLR7): 45600 nM | IC50 (human TLR8): > 50000 nM | IC50 (human TLR9): 630 nM | IC50 (human TLR9; [1]): 631 nM

COCCN1C2CCC1CC(N1CCC(c3ccc4c(nc(-c5ccc(S(C)(=O)=O)cc5)n4C)c3F)CC1)C2 (single isomer, unassigned) [Example 199, 4-fluoro-5-(1-(8-(2-methoxyethyl)-8-azabicyclo[3.2.1]octan-3-yl)piperidin-4-yl)-1-methyl-2-(4-(methylsulfonyl)phenyl)-1H-benzo[d]imidazole]
IC50 (human TLR7): 25600 nM | IC50 (human TLR8): > 50000 nM | IC50 (human TLR9): 75 nM | IC50 (human TLR9; [1]): 75 nM

COCCN1C2CCC1CC(N1CCC(c3ccc4c(nc(-c5ccc(S(C)(=O)=O)cc5)n4C)c3F)CC1)C2 (single isomer, unassigned) [Example 200, 4-fluoro-5-(1-(8-(2-methoxyethyl)-8-azabicyclo[3.2.1]octan-3-yl)piperidin-4-yl)-1-methyl-2-(4-(methylsulfonyl)phenyl)-1H-benzo[d]imidazole]
IC50 (human TLR7): 47800 nM | IC50 (human TLR8): > 50000 nM | IC50 (human TLR9): 380 nM | IC50 (human TLR9; [1]): 380 nM

Cn1c(-c2ccc(S(C)(=O)=O)cc2)nc2cc(C3CCN(C4CC5CCC(C4)N5C4COC4)CC3)cc(F)c21 (single isomer, unassigned) [Example 213, 7-fluoro-1-methyl-2-(4-(methylsulfonyl)phenyl)-5-(1-(8-(oxetan-3-yl)-8-azabicyclo[3.2.1]octan-3-yl)piperidin-4-yl)-1H-benzo[d]imidazole]
IC50 (human TLR7): > 50000 nM | IC50 (human TLR8): > 50000 nM | IC50 (human TLR9): 340 nM | IC50 (human TLR9; [1]): 335 nM

Cn1c(-c2ccc(S(C)(=O)=O)cc2)nc2cc(C3CCN(C4CC5CCC(C4)N5C4COC4)CC3)cc(F)c21 (single isomer, unassigned) [Example 214, 7-fluoro-1-methyl-2-(4-(methylsulfonyl)phenyl)-5-(1-(8-(oxetan-3-yl)-8-azabicyclo[3.2.1]octan-3-yl)piperidin-4-yl)-1H-benzo[d]imidazole]
IC50 (human TLR7): > 50000 nM | IC50 (human TLR8): > 50000 nM | IC50 (human TLR9): 4700 nM | IC50 (human TLR9; [1]): 4660 nM

Cn1c(-c2ccc(S(C)(=O)=O)cc2)nc2cc(C3CCN(C4CC5CCC(C4)N5C4CCC4)CC3)cc(F)c21 (single isomer, unassigned) [Example 215, 5-(1-(8-cyclobutyl-8-azabicyclo[3.2.1]octan-3-yl)piperidin-4-yl)-7-fluoro-1-methyl-2-(4-(methylsulfonyl)phenyl)-1H-benzo[d]imidazole]
IC50 (human TLR7): 17000 nM | IC50 (human TLR8): > 50000 nM | IC50 (human TLR9): 70 nM | IC50 (human TLR9; [1]): 70 nM

Cn1c(-c2ccc(S(C)(=O)=O)cc2)nc2cc(C3CCN(C4CC5CCC(C4)N5C4CCC4)CC3)cc(F)c21 (single isomer, unassigned) [Example 216, 5-(1-(8-cyclobutyl-8-azabicyclo[3.2.1]octan-3-yl)piperidin-4-yl)-7-fluoro-1-methyl-2-(4-(methylsulfonyl)phenyl)-1H-benzo[d]imidazole]
IC50 (human TLR7): 23200 nM | IC50 (human TLR8): > 50000 nM | IC50 (human TLR9): 270 nM | IC50 (human TLR9; [1]): 269 nM

CC(C)CN1C2CCC1CC(N1CCC(c3ccc4nc(-c5ccc(S(C)(=O)=O)cc5)[nH]c4c3F)CC1)C2 (single isomer, unassigned) [Example 219, 7-fluoro-6-(1-(8-isobutyl-8-azabicyclo[3.2.1]octan-3-yl)piperidin-4-yl)-2-(4-(methylsulfonyl)phenyl)-1H-benzo[d]imidazole]
IC50 (human TLR7): 18500 nM | IC50 (human TLR8): > 50000 nM | IC50 (human TLR9): 65 nM | IC50 (human TLR9; [1]): 65 nM
